This is an account of results in patent US20210380547A1, “UREA DERIVATIVES FOR TREATING AND/OR PREVENTING CANCER” (CENTRE NATIONAL DE LA RECHERCHE SCIENTIFIQUE, priority 2018, published 2021).

Usually EC50 stands for the concentration needed to bring the measured effect to its halfway point.

Structures are written as SMILES. Entries after “also recorded” stand apart in the source; their conditions may differ. Like-named read-outs stand apart in the source and are kept apart here.

Data set [1] has as its system primary normal kidney cells (15S). Nature of the data set: XTT cell viability, primary normal kidney cells. In kind it is cell-based, human. As to conditions: up to 5 μM, XTT 48 h. Here is the method:
A: Primary RCC cells (TF and CC) and normal renal cells (15S) were treated with compound #1 (1 to 5 μM) for 48 h. Cell viability was measured by XTT assays;
(§1) Fifty microliters of sodium 3′-[1-phenylaminocarbonyl)-3,4-tetrazolium]-bis(4-methoxy-6-nitro) benzene sulfonic acid hydrate (XTT) reagent was added to each well. The assay is based on the cleavage of the yellow tetrazolium salt XTT to form an orange formazan dye by metabolically active cells. The absorbance of the formazan product, reflecting cell viability, was measured at 490 nm. Each assay was performed in quadruplicate.
The biological effects of compound #1 on primary RCC tumors cells and normal renal cells harvested from patients suffering from kidney cancer have been explored (FIG. 4).
(In general: Formazan colour is commonly taken as a measure of viable cells.)

Data set [2] deals with A498 cells. Nature of the data set: Tumor xenograft experiment (ectopic model of RCC). In kind it is in vivo, mice. Here is the method:
Cells were lysed in buffer containing 3% SDS, 10% glycerol and 0.825 mM Na2HPO4. 30 to 50 μg of proteins were separated on 10% SDS-PAGE, transferred onto a PVDF membrane (Immobilon, Millipore, France) and then exposed to the appropriate antibodies. Proteins were visualized with the ECL system using horseradish peroxidase-conjugated anti-rabbit or anti-mouse secondary antibodies.
One microgram of total RNA was used for the reverse transcription, using the QuantiTect Reverse Transcription kit (QIAGEN, Hilden, Germany), with a blend of oligo (dT) and random primers to prime first-strand synthesis. SYBR master mix plus (Eurogentec, Liege, Belgium) was used for qPCR. The mRNA level was normalized to 36B4 mRNA.
Ectopic model of RCC: seven million A498 cells were injected subcutaneously into the flank of 5-week-old nude (nu/nu) female mice (Janvier, France). The tumor volume was determined with a caliper (v=L*1^2*0.5). When the tumor reached 100 mm^3, mice were treated five a week for 4 weeks, by gavage with placebo (dextrose water vehicle) or compound #1 (50 mg/kg). This study was carried out in strict accordance with the recommendations in the Guide for the Care and Use of Laboratory Animals. Our experiments were approved by the “Comite national institutionnel d′éthique pour l'animal de laboratoire (CIEPAL)”
Sections from blocks of formol-fixed and paraffin-embedded tumors were examined for immunostaining. Sections were incubated with monoclonal anti-Ki67 (clone MIB1, DAKO, Ready to use) antibodies. Biotinylated secondary antibody (DAKO) was applied and binding was detected with the substrate diaminobenzidine against a hematoxylin counterstain.
Mice were xenografted with the highly aggressive ccRCC cells (A498), which form highly vascularized tumors.

For data set [3], the system named is malignant (ccRCC and hematological) cells. Nature of the data set: FACS analysis of cell death markers (AV, PI), malignant cells. As to conditions: 5 μM, 48 h. It is filed as cell-based, human. On the procedure:
FIG. 1: Observation by FACS analyses of early (Annexin AV) and late (Propidium Iodide, PI) apoptosis markers expressed by healthy and malignant cells after treatment with compounds #1 and #2 at 5 μM. CT: negative control.
(§2) Apoptosis analysis: After stimulation, cells were washed with ice-cold PBS and were stained with the annexin-V-fluos staining kit (Roche, Meylan, France) according to the manufacturer's procedure. Fluorescence was measured by using the FL2 (AV) and FL3 (propidium iodide, PI) channels of a fluorescence-activated cell sorter apparatus (Calibur cytometer).
To complete these XTT assays, malignant (ccRCC and hematological) and healthy (human fibroblasts FHN) cells have been grown with compounds #1 or #2, and after 48h the expression of cell death markers (AV and PI) has been quantified by FACS analyses (FIG. 1).
For orientation: In flow cytometry, cells or beads pass a laser one at a time.

The test system of data set [4] is 786-O and 786-R cells. Nature of the data set: FACS analysis of death markers, sunitinib-sensitive and -resistant cells. As to conditions: 2.5 μM, 48 h, 786 and 786-R. In kind it is cell-based, human. On the procedure: C: 786 and 786-R cells were treated with 2.5 μM compound #1 for 48 h. Cells were stained with the PI/annexin-V-fluo staining kit according to the manufacturer's indications. Histograms show both annexin-V^+/PI^− cells (blue bars) and annexin-V^+/PI^+ cells (red bars);
as §2

For data set [5], the system named is CXCL7-dependent HuVEC migration. Nature of the data set: Boyden chamber migration assay, CXCL7-dependent. Conditions: CXCL7 (50 ng/ml), 24 hr. In kind it is cell-based. Here is the method: (§3) CXCL7 or VEGFA-stimulated chemotaxis assays were monitored using modified Boyden chambers containing polycarbonate membranes (8-μm pores, Transwell; Corning, Sigma). Cells were seeded on the upper side of the filters and chambers were placed on 24-well plates containing CXCL7 (50 ng/ml) or VEGFA (50 ng/ml). Cells were allowed to migrate for 24 hr at 37° C. in 5% CO2. Migratory cells on the lower membrane surface were fixed in 3% paraformaldehyde, stained with 0.1% crystal violet.

In data set [6] the test system is OCI-AML3. Nature of the data set: XTT cell viability assay, OCI-AML3. It is filed as cell-based, human. As to conditions: Homo sapiens, OCI-AML-3; XTT assay (48 h); standard deviation of 10%. On the procedure: as §1
(§4) Compounds #1-#14 have been assayed as potential anti-proliferative agents against a panel of human breast head and neck, and kidney tumor cells and hematological malignancies, selected on the basis of their aggressiveness (e.g. incurable triple-negative breast cancer cells: MDA-MB-231; kidney ccRCC cells: RCC4, A498 and 786-O and 786R; head and neck cancer cells: CAL33, CAL33RR, CAL27, and CAL27RR; acute myeloid cell lines: OCI-AML2, OCI-AML3, MolM13, and MolM14; myelodysplastic cell line: SM1; and chronic myeloid cell line: CML). All these cell lines share as common denominator the expression of CXCR1 and CXCR2. The EC50 values have been measured by a XTT colorimetric assay, and compared to those of SB-225002, used as a reference; the results are listed in Table 1.

Data set [7] concerns VEGFA-dependent HuVEC migration. Nature of the data set: Boyden chamber migration assay, VEGFA-dependent. It is filed as cell-based. Conditions: VEGFA (50 ng/ml), same concentration. On the procedure:
as §3

In data set [8] the test system is CAL27. Nature of the data set: XTT cell viability assay, CAL27. In kind it is cell-based, human. Conditions: for EC50: XTT assay (48 h), standard deviation of 10%, read-out: EC50 (μM) Head and Neck CAL27. Here is the method: A, B: Naive (Cal27, A), and cisplatine-resistant (Cal27R, B) Cal27 cells, were treated with compound #1 or cisplatine (1 to 10 μM) for 48 hr. Cell viability was measured by XTT assays;
C, D: Cal27 (C), cal27R (D), were treated with 2.5 μM compound #1, 2.5 μM cisplatin for 24 h to 96 h. The metabolism of cells was measured by XTT assay.
as §1, §4

For `O=C(Nc1cccc(Cl)c1)Nc1nc2ccc([N+](=O)[O-])cc2s1` [Compound #1, 1-(3-chlorophenyl)-3-(6-nitrobenzo[d]thiazol-2-yl)urea], the “effect on primary normal kidney cells (15S)” value in data set [1] is given as “no effect”. Also, the “reduction of the tumor weight” value in data set [2] (A498 xenograft, 50 mg/kg gavage, end of experiment) is reported as “more than 35%”. For the same molecule, the “reduction of tumor volume” value in data set [2] (A498 xenograft, 50 mg/kg gavage, end of experiment (day 70)) is “more than 65%”. Besides, in data set [2] (human, qPCR), the “mRNA level of CXCL5 in tumors” value is given as “significantly decreased”, the “mRNA level of CXCL7 in tumors” value is “significantly decreased”, the “mRNA level of CXCL8 in tumors” value was “significantly decreased” and the “mRNA level of VEGFA in tumors” value is on record as “not those of VEGFA”. For the same molecule, in data set [2] (immunoblotting), the “AKT phosphorylation in tumor lysates” value is on record as “inhibits AKT” and the “ERK phosphorylation in tumor lysates” value is on record as “not ERK”. For the same molecule, in data set [2] (treated group, day 70), the “weight of the animals” value was “No weight loss”. The “labelling of the proliferation marker Ki-67” value in data set [2] (tumor immunostaining) was “significantly decreases”. In addition, the “lowering of mRNA levels of murine CD31” value in data set [2] (tumors, qPCR) is listed as “more than 75%”. In addition, the “early (AV) and late (PI) apoptosis markers on malignant cells” value in data set [3] is on record as “cytotoxic effect on malignant cells; also recorded: more efficient than compound #2”. In addition, the “death markers (annexin-V/PI) in sensitive and resistant cells” value in data set [4] was “kills in a similar way sensitive and resistant”. Also, the “decrease of HuVECs motility” value in data set [5] was “more than 50%”. In data set [6], this molecule registered a 50% effective concentration (EC50) of 4 µM. Also, the “activity on VEGFA-stimulated HuVEC motility” value in data set [7] was “does not exert any visible activity”. Further, the “time of treatment to total inhibition of proliferation” value in data set [8] (Cal27 cells, 2.5 μM, XTT 24 h to 96 h) is reported as “approximately 70 hours”. In data set [8] (Homo sapiens, CAL-27, 48 h), the EC50 was 2 µM. The half-maximal effective concentration (EC50) in data set [8] worked out at 3 µM.
